Laboratory results: patent US20050277107A1, “Systems and methods for cell preservation” (priority 2002, published 2005)

Assays:
[1] = Glass transition temperature of extracellular trehalose solution (modulated temperature DSC); assay type: physicochemical; settings: after 18 h of dried storage at 4° C.
Experimental: Thus, the extracellular trehalose solution had vitrified by 18 h. After vitrification (glass formation) of the solution containing the cells had occurred, the cells were able to retain their plasma membrane integrities, even after days to weeks in storage at relatively cooler storage temperatures.

[2] = tested on: NIH 3T3 murine fibroblasts; assay: Post-rehydration plasma membrane integrity (SYTO 13/ethidium bromide dual fluorescent assay) of dried cells; assay type: cell-based; settings: for moisture content above which membrane integrity remained relatively stable: hypertonic (528 mOsm/kg) 0.2 M trehalose
Experimental: (§1) NIH 3T3 murine fibroblasts were cultured in Dulbecco's Modified Eagle's medium (DMEM) supplemented with 10% v/v bovine calf serum and 1% v/v penicillin-streptomycin at 37° C. with 10% CO2 in air. At 70% confluence, the cells were trypsinized and resuspended in culture medium. 20 microliter droplets of cells were plated onto sterile 12 mm circular glass cover slips and cultured for 30 min at 37° C. to allow for loose attachment of the fibroblasts to the cover slip. In some cases, poly-L-lysine-coated cover slips were used for attaching the cells to the cover slips. The cover slips were precoated with poly-L-lysine to assure uniform surface characteristics as follows. The cover slips were first prepared by soaking them in aqua regia overnight. The next day, the cover slips were rinsed in 50 mM NaHCO3, then in de-ionized H2O. The cover slips were then baked for at least 3 h at 150° C. The cover slips were removed from the oven and floated in a 1 mg/ml solution of poly-L-lysine for 5 min on each side, then rinsed in de-ionized H2O and air-dried.
(§2) Trehalose was inserted into the fibroblasts as follows. The fibroblasts were washed with 30 microliters of a HEPES-buffered saline solution supplemented with EDTA, followed by three washes with 30 microliters of RPMI-1640. The cells were then porated by exposure to an RPMI-1640 solution containing 25 micrograms/ml of a pore-forming protein, H5 alpha-hemolysin, for 10 min. Intracellular trehalose was inserted into the porated cells by exposure to either a hypertonic (RPMI-1640+0.2 M trehalose; 528 mOsm/kg) or an isotonic (RPMI-1640 diluted in H2O+0.2 M trehalose; 310 mOsm/kg) trehalose solution for 45 min. The pores created by H5 alpha-hemolysin in the fibroblasts were closed by adding 25 micromolar ZnSO4 to the solution. The fibroblasts were then washed in an (H5-free) hypertonic or an isotonic trehalose solution. The osmolality of the solution was measured using a freezing-point depression osmometer. All experimental manipulations were performed at room temperature, unless otherwise indicated.
Techniques used in these experiments for drying cells included evaporative drying (using natural convection) or forced laminar convective flow. The natural convection protocol is generally as follows. The approximate pre-desiccation dimensions of the 20 microliter droplet of media containing the fibroblasts on the glass cover slip was 6 mm diameter×1 mm height. The cover slips were placed in airtight acrylic boxes containing CaSO4/CoCl2 desiccant. The cover slips were stored there for different lengths of time, typically ranging from a few hours to several weeks. […] The moisture content of each droplet was determined gravimetrically from the difference in the droplet weight before and after drying, and was expressed as a percentage of anhydrous dry weight. Anhydrous dry weights were determined by baking a representative droplet overnight at 110° C. and measuring the droplet weights. […] The cells within the droplet were then cultured overnight (˜18 h) and assessed for viability.
The integrity of the plasma membrane of the cells after rehydration was determined using a dual fluorescent assay as follows. […] The cells were imaged on a fluorescent microscope and analyzed. The membrane integrity (MI) for the cells was calculated as the percentage of SYTO® 13-positive cells in the sample. […]

[3] = tested on: NIH 3T3 murine fibroblasts; assay: Post-rehydration cell growth (percentage of viable cells versus undried controls after overnight culture); assay type: cell-based
Experimental: as §1
as §2, with “All experimental manipulations were performed at room temperature, unless otherwise indicated.” left out
Techniques used in these experiments for drying cells included evaporative drying (using natural convection) or forced laminar convective flow. […] The moisture content of each droplet was determined gravimetrically from the difference in the droplet weight before and after drying, and was expressed as a percentage of anhydrous dry weight. Anhydrous dry weights were determined by baking a representative droplet overnight at 110° C. and measuring the droplet weights. […] The cells within the droplet were then cultured overnight (˜18 h) and assessed for viability.
Following overnight culture, the percentage of viable cells in droplets that were dried and then recovered, compared to undried controls, was used as a measure of cell growth. Viable fibroblasts could be readily identified through their flattening, migratory, and mitotic behavior. […]

3T3 fibroblasts = assay: Long-term stability of membrane integrity during dried storage (exponential decay curve fit); assay type: cell-based, murine; settings: 0.4 M intracellular trehalose
Experimental: The integrity of the plasma membrane of the cells after rehydration was determined using a dual fluorescent assay as follows. SYTO® 13 (Molecular Probes, Inc. Eugene, Oreg.), a permeant live cell nucleic acid dye (25 micromolar), and ethidium bromide (EB; 25 micromolar) were used to differentially stain the cells. The cells were imaged on a fluorescent microscope and analyzed. The membrane integrity (MI) for the cells was calculated as the percentage of SYTO® 13-positive cells in the sample.
The membrane integrity of 3T3 fibroblasts loaded with 0.4 M trehalose intracellularly was measured for periods of time extending out to several weeks (FIG. 5). The fibroblasts were prepared using methods similar to those described in Example 1. The data in FIG. 5 represents experiments where cells were removed from storage, rehydrated, analyzed, and then discarded. The cells were stored at temperatures of −80° C., −20° C., 4° C., 25° C., and 37° C., over CaSO4 desiccant (about 5% relative humidity). The 0.4 M trehalose condition was chosen in this example since previous experiments had shown that cells containing 0.4 M trehalose had high MI values after overnight storage.
Thus, the rate at which the membrane integrity decays appears to be a function of the storage temperature.

[4] = tested on: human fibroblast cells (HFF1 cells); assay: Cell viability after vacuum desiccation and rehydration on cell adhesion surfaces; assay type: cell-based; settings: dried on standard tissue culture surfaces to about 20% moisture, post-rehydration on coated surface (Tissue Dried)
Experimental: In this set of experiments, human fibroblast cells (HFF1 cells) were desiccated under vacuum at room temperature on various surfaces, and in some cases, in the presence of 0.2 M extracellular trehalose. The fibroblasts were dried to about 20% moisture content. The fibroblasts were then recovered by rehydrating them, placing them into culture, and assessing their viability about 24 hours later, using techniques similar to those described in Example 1.

OC[C@H]1O[C@H](O[C@H]2O[C@H](CO)[C@@H](O)[C@H](O)[C@H]2O)[C@H](O)[C@@H](O)[C@@H]1O [trehalose]
glass transition temperature of the extracellular trehalose [1]: 5 to 10 °C | moisture content above which membrane integrity remained relatively stable ([2]; extracellular trehalose only): greater than 15% | moisture content above which membrane integrity remained relatively stable ([2]; intracellular and extracellular trehalose): greater than 10% | membrane integrity (MI) after drying, internal plus external trehalose versus no internal trehalose ([2]; hypertonic solution): higher MI values | moisture content below which gross membrane damage was observed ([2]; isotonic (310 mOsm/kg) solutions of 0.2 M trehalose): 5-8% | intact cells (membrane integrity) ([2]; isotonic trehalose solutions, moisture contents as low as 5-8%): about 80% | percentage of cell growth, isotonic intracellular and extracellular trehalose versus isotonic extracellular trehalose only ([3]; dried to about 10% moisture content, p=0.004): significant improvement | cells viable (cell growth) following drying ([3]; hypertonic trehalose solutions, dried to about 10% moisture content): Less than 20% | percentage of cell growth ([3]; isotonic 0.2 M extracellular trehalose only, dried to 10% moisture content): less than 30% | cells capable of growth after recovery and overnight culture ([3]; isotonic 0.2 M intracellular and extracellular trehalose, moisture contents greater than about 10%): Approximately 80% | decay time constant of membrane integrity (3T3 fibroblasts; storage at 4° C. over CaSO4 desiccant): 54 days | decay time constant of membrane integrity (3T3 fibroblasts; storage at 25° C. over CaSO4 desiccant): 7.5 days | decay time constant of membrane integrity (3T3 fibroblasts; storage at 37° C. over CaSO4 desiccant): 2.0 days | decay time constant of membrane integrity (3T3 fibroblasts; storage at -20° C. over CaSO4 desiccant): 138 days | decay time constant of membrane integrity (3T3 fibroblasts; storage at -80° C. over CaSO4 desiccant): 147 days

collagen
cell viability about 24 hours after rehydration [4]: Increases in cell viability

laminin
cell viability about 24 hours after rehydration [4]: Increases in cell viability

fibronectin
cell viability about 24 hours after rehydration [4]: Increases in cell viability
